Patent publication US7902184B2, “Piperazinyl pyrimidine derivatives” (Hoffmann-La Roche Inc., priority 2006, dated 2011)
pKi: −log10 of the molar value.

Biological target: T1, histamine 3 receptor (H3R) (Homo sapiens, UniProt Q9Y5N1)
T1 construct: expressed in transfected cells; host or cells: CHO cells (membranes)
Assay: Binding assay with 3H-(R)α-methylhistamine (competition binding, H3R-CHO membranes)
Details: membrane of the human H3R-CHO cell line; 3H(R)α-methylhistamine 1 nM; Ki calculated from IC50 by Cheng-Prusoff
Method: Binding Assay with ^3H—(R)α-methylhistamine
Saturation binding experiments were performed using HR3-CHO membranes prepared as described in Takahashi, K, Tokita, S., Kotani, H. (2003) J. Pharmacol. Exp. Therapeutics 307, 213-218.
An appropriate amount of membrane (60 to 80 μg protein/well) was incubated with increasing concentrations of ^3H(R)α-methylhistamine di-hydrochloride (0.10 to 10 nM). Non specific binding was determined using a 200 fold excess of cold (R)α-methylhistamine dihydrobromide (500 nM final concentration). The incubation was carried out at room temperature (in deep-well plates shaking for three hours). The final volume in each well was 250 μl. The incubation was followed by rapid filtration on GF/B filters (pre-soaked with 100 μl of 0.5% PEI in Tris 50 mM shaking at 200 rpm for two hours). The filtration was made using a cell-harvester and the filter plates were then washed five times with ice cold washing buffer containing 0.5 M NaCl. After harvesting, the plates were dried at 55° C. for 60 min, then scintillation fluid (Microscint 40, 40 microl in each well) was added and the amount of radioactivity on the filter was determined in Packard top-counter after shaking the plates for two hours at 200 rpm at room temperature.
Binding Buffer: 50 mM Tris-HCl pH 7.4 and 5 mM MgCl2×6H2O pH 7.4. Washing Buffer: 50 mM Tris-HCl pH 7.4 and 5 mM MgCl2×6H2O and 0.5 M NaCl pH 7.4.
Indirect measurement of affinity of H3R inverse agonists: twelve increasing concentrations (ranging from 10 μM to 0.3 nM) of the selected compounds were always tested in competition binding experiments using membrane of the human H3R-CHO cell line. […]
All compounds were tested at a single concentration in duplicate. […] Ki's were calculated from IC50 based on Cheng-Prusoff equation (Cheng, Y, Prusoff, W H (1973) Biochem Pharmacol 22, 3099-3108): Ki=IC50/[1+D/Kd] wherein D is the concentration of the radioligand and Kd is the binding constant for the radioligand binding to the receptor and the conditions used in the competition experiment.

T1 sequence (Q9Y5N1 whole entry): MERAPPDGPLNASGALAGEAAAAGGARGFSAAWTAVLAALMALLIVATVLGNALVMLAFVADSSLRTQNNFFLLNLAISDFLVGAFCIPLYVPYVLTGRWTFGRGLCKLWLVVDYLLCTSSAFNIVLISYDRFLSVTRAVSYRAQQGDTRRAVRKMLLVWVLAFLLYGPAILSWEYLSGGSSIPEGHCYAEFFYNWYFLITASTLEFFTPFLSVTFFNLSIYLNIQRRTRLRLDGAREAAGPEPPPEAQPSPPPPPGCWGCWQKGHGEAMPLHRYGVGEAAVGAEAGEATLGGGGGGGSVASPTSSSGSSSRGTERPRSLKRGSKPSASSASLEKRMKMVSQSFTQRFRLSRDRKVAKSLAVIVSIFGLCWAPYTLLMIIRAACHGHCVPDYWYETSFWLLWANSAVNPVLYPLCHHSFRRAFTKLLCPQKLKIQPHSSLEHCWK

pKi	SMILES
7.29	O=C(Nc1ccnc(N2CCN(C3CCCC3)CC2)n1)N1CCCCCC1 [Example 6, azepane-1-carboxylic acid [2-(4-cyclopentyl-piperazin-1-yl)-pyrimidin-4-yl]-amide]
7.46	CC(C)N1CCN(c2cc(NC(=O)N3CCCCC3)ncn2)CC1 [Example 54, piperidine-1-carboxylic acid [6-(4-isopropyl-piperazin-1-yl)-pyrimidin-4-yl]-amide]
7.65	CC1CC(C)CN(C(=O)Nc2cc(N3CCN(C4CCCCC4)CC3)ncn2)C1 (stereo not drawn) [Example 93, 3,5-Dimethyl-piperidine-1-carboxylic acid [6-(4-cyclohexyl-piperazin-1-yl)-pyrimidin-4-yl]-amide]
